Assay results: ChEMBL document CHEMBL1687754, “Chip calorimetry for fast and reliable evaluation of bactericidal and bacteriostatic treatments of biofilms” (2010)
In brackets after ≈: the same amount, converted by molar mass. Activity calls are given as the source filed them. No cut-off for these calls is given here.

Tests used:
Pseudomonas putida [1] = assay: Antibacterial activity against Pseudomonas putida PAW340 assessed as decrease in bacterial count at 20 to 150 ug/ml; assay type: functional, organism-based
Pseudomonas putida [2] = assay: Inactivation of Pseudomonas putida PAW340 biofilms assessed as decrease in heat production by Chip calorimetry; assay type: functional, organism-based
Pseudomonas putida [3] = assay: Inactivation of Pseudomonas putida PAW340 biofilms assessed as decrease in heat production at 0.5 mM within 1 hr by Chip calorimetry; assay type: functional; set-up: scale not given: the % may be the effect or the level left
Pseudomonas putida [4] = assay: Inactivation of Pseudomonas putida PAW340 biofilms assessed as decrease in heat production at 0.5 mM by Chip calorimetry; assay type: functional, organism-based
Pseudomonas putida [5] = assay: Inactivation of Pseudomonas putida PAW340 biofilms assessed as decrease in ATP content at 0.5 mM by Chip calorimetry; assay type: functional, organism-based
Neisseria gonorrhoeae = assay: Antibacterial activity against Neisseria gonorrhoeae; assay type: functional
Pseudomonas putida [6] = assay: Inactivation of Pseudomonas putida PAW340 biofilms assessed as decrease in heat production at 3 to 30 ug/ml by Chip calorimetry; assay type: functional, organism-based; settings: TDE = time-dependent effect
Staphylococcus aureus = assay: Antibacterial activity against Staphylococcus aureus; assay type: functional
Pseudomonas putida [7] = assay: Effect on Pseudomonas putida PAW340 biofilms assessed as heat production at 70 ug/ml by Chip calorimetry; assay type: functional
Pseudomonas putida [8] = assay: Effect on Pseudomonas putida PAW340 biofilms assessed as heat production at 250 ug/ml by Chip calorimetry; assay type: functional
Klebsiella pneumoniae = assay: Antibacterial activity against Klebsiella pneumoniae; assay type: functional
Pseudomonas putida [9] = assay: Effect on Pseudomonas putida PAW340 biofilms assessed as heat production at 3 ug/ml by Chip calorimetry; assay type: functional
Pseudomonas aeruginosa = assay: Antibacterial activity against Pseudomonas aeruginosa; assay type: functional
Escherichia coli = assay: Antibacterial activity against Escherichia coli; assay type: functional

## O=C(O)c1cn(C2CC2)c2cc(N3CCNCC3)c(F)cc2c1=O
Pseudomonas putida [1]
  Activity: Active
Pseudomonas putida [2]
  Activity: Dose-dependent effect

## O=[N+]([O-])c1ccc(O)c([N+](=O)[O-])c1 [2,4-DINITROPHENOL]
Pseudomonas putida [3]
  Activity: 90%
Pseudomonas putida [4]
  Activity: Active
Pseudomonas putida [5]
  Activity: Active

## NC[C@H]1O[C@H](O[C@H]2[C@H](O)[C@@H](O[C@H]3O[C@H](CO)[C@@H](O)[C@H](N)[C@H]3O)[C@H](N)C[C@@H]2N)[C@H](O)[C@@H](O)[C@@H]1O [KANAMYCIN]
Neisseria gonorrhoeae
  MIC: 2 µg/mL (≈ 4.13 µM)
Pseudomonas putida [6]
  Activity: tde

## CN(C)[C@@H]1C(O)=C(C(N)=O)C(=O)[C@@]2(O)C(O)=C3C(=O)c4c(O)cccc4[C@@](C)(O)[C@H]3C[C@@H]12 [TETRACYCLINE]
Staphylococcus aureus
  MIC: 0.15 µg/mL (≈ 0.338 µM)
Pseudomonas putida [7]
  Activity: 118%
Pseudomonas putida [8]
  Activity: 100%
Klebsiella pneumoniae
  MIC: 2.5 µg/mL (≈ 5.63 µM)
Pseudomonas putida [9]
  Activity: 100%
Pseudomonas aeruginosa
  MIC: 6.25 µg/mL (≈ 14.1 µM)
Escherichia coli
  MIC: 0.07 µg/mL (≈ 0.158 µM)
